# Source: PubChem BioAssay AID2742 (NMMLSC, 2010)
# Calls of active or inactive are those of the source.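 How the source made its calls: active means fitted half-maximal concentration for changing background-corrected GFP signal at or below a set limit; inactive means the rest.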
# Test: modulators of MEP2-GFP levels in yeast, dose response, S. cerevisiae, flow cytometry GFP, MLPCN hits (AID 2742);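 further: GFP tag reports level of MEP2 protein as a downstream target of TOR signalling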
# Details: S. cerevisiae MEP2-GFP strain, flow cytometry fluorescence, 3 h; at 33 µM (top of the series)
row,SMILES,"GFP fluorescence (kMESF), higher = increase"
1,CC(c1ccccc1)N1C(=O)/C(=C/c2ccncc2)SC1=S (stereo not given),2.87 kMESF (inactive)
2,O=C1C=CC(=O)N1c1ccc(Sc2ccc([N+](=O)[O-])cc2)cc1,2.59 kMESF (inactive)
3,c1ccc(-c2csc(Nc3cccnc3)n2)nc1,1.4 kMESF (inactive)
4,O=C(/C=C/c1ccc(Br)cc1)NC(=S)NNC(=O)c1ccco1,3.07 kMESF (inactive)
5,O=C(Nc1nnc(-c2ccc(Cl)cc2)o1)c1ccccc1Br,4.01 kMESF (inactive)
6,O=C1ON=C(c2ccccc2)/C1=C/c1ccco1,4.24 kMESF (inactive)
7,O=c1oc2cc(Oc3c([N+](=O)[O-])cc(C(F)(F)F)cc3[N+](=O)[O-])ccc2c2c1CCCC2,4.77 kMESF (inactive)
8,O=c1[nH]c(-c2ccccn2)nc(C(F)(F)F)c1Br,4.02 kMESF (inactive)
9,COc1cc(NC(=O)c2ccc(C)cc2)ccc1NC(=O)c1cc2ccccc2o1,2.3 kMESF (inactive)
10,O=C(NNC(=S)NC(=O)c1ccco1)c1ccc(F)cc1,4.11 kMESF (inactive)
11,CS(=O)(=O)c1nc(-c2ccccc2)cc(C(F)(F)F)n1,7.24 kMESF (inactive)
12,Cc1ccc(/C=N/Nc2ncc(Cl)cc2Cl)s1,4.77 kMESF (inactive)
13,CC(=O)N(\C=C/C=C/C=C1\Sc2ccccc2C1=O)c1ccccc1,8.76 kMESF (inactive)
14,COc1cc(/C=C2\CC/C(=C\c3cc(OC)c(O)c(OC)c3)C2=O)cc(OC)c1O,3.25 kMESF (inactive)
15,COc1ccc(OC)c(S(=O)(=O)ON2C(=O)c3ccccc3C2=O)c1,-8.29 kMESF (inactive)
16,O=C1CCN(S(=O)(=O)c2ccccc2)CCN1CCOCc1ccc(F)cc1,1.97 kMESF (inactive)
17,Cc1[nH]c(-c2ccccn2)nc(=S)c1Cl,4.24 kMESF (inactive)
18,C/C(=N\Nc1ncnc2sc(C)c(C)c12)c1ccccn1,38.2 kMESF (inactive)
19,COC(=O)c1cc(N2C(=O)C3C(C2=O)C2(C)C=CC3(C)O2)ccc1Cl (stereo not given),4.8 kMESF (inactive)
20,COC(=O)CCCC1=CC2=CC(=O)C(C)(OC(=O)CCc3ccccc3)C(=O)C2=CO1 (stereo not given),1.97 kMESF (inactive)

row,SMILES,"GFP fluorescence (kMESF), higher = increase"
1,N#C/C(=C\c1cc(Br)ccc1F)C(=O)NC1CC1,6.77 kMESF (inactive)
2,O=[N+]([O-])c1c(Nc2ccccn2)cc(Cl)c2nonc12,21.3 kMESF (inactive)
3,CC1=CC(=O)C(C(C)C)=C/C1=N/OS(=O)(=O)c1ccccc1,3.47 kMESF (inactive)
4,O=C(O)C1Sc2[nH]c(=O)sc2C2c3cc(Br)ccc3OC(=O)C12 (stereo not given),4.8 kMESF (inactive)
5,O=S(=O)(/N=C(/Sc1ccccc1)c1ccccc1)c1ccccc1,4.43 kMESF (inactive)
6,COc1ccc(C(=O)/C=C2/C(=O)Nc3ccccc32)c(OC)c1,3.34 kMESF (inactive)
7,CC(C)(C)C(=O)NC(=S)NNC(=O)c1sc2ccccc2c1Cl,4.68 kMESF (inactive)
8,CCC(=O)Nc1ccc(NC(=O)c2cc3ccccc3o2)cc1,2.2 kMESF (inactive)
9,C#CCOCCOCCOCCNc1nc(N2CCN(C(=O)CCCCCCCCCCNC(=O)[C@H](CCCCN)n3cc(CCO)nn3)CC2)nc(N2CCN(C(=O)CCCCCCCCCCNC(=O)[C@H](CCCCN)n3cc(C[C@@H](C)CC)nn3)CC2)n1,3.23 kMESF (inactive)
10,O=c1oc(/C=C/c2ccc([N+](=O)[O-])s2)nc2ccccc12,5.31 kMESF (inactive)
11,Oc1c(CN2CCN(c3ccc(F)cc3)CC2)cc(Cl)c2cccnc12,10.7 kMESF (inactive)
12,CCC(=O)Nc1ccc(NC(=O)c2cc3ccccc3o2)c(OC)c1,2.4 kMESF (inactive)
13,Nc1ccccc1C#CC(=O)c1ccccc1,6.68 kMESF (inactive)
14,Cc1cccc(C(=O)NNC(=S)NC(=O)c2ccccc2)c1,5.31 kMESF (inactive)
15,O=C1C=C(Nc2ccc(Cl)cc2)C(=O)N1c1ccc(Cl)cc1,1.97 kMESF (inactive)
16,CCCCC1OC23CCCCC2C(C#N)(C(=N)O3)C1(C#N)C#N (stereo not given),3.37 kMESF (inactive)
17,CCOc1ccc(N2C(=O)C(Cl)=C(Nc3ccccc3O)C2=O)cc1,4.31 kMESF (inactive)
18,O=C1ON=C(c2ccccc2)/C1=C/c1ccc(-c2ccccc2[N+](=O)[O-])o1,5.5 kMESF (inactive)
19,CCc1ccc(OCC(=O)NNC(=S)NC(=O)C2CC2)c(Br)c1,5.6 kMESF (inactive)
20,COc1ccc(N=Cc2nc(-c3ccccc3)oc2OC(=O)c2ccccc2)cc1,2.68 kMESF (inactive)

row,SMILES,"GFP fluorescence (kMESF), higher = increase"
1,Cc1ccsc1/C=C1\C(=O)NC(=S)N(C)C1=O,3.66 kMESF (inactive)
2,COc1ccc([N+](=O)[O-])c(S(=O)(=O)c2ccccc2)n1,3.41 kMESF (inactive)
3,Cc1ccc(S(=O)(=O)c2ccc([N+](=O)[O-])cn2)cc1,5.31 kMESF (inactive)
4,Cc1ccc(NN2C(=O)C=C(c3ccc(Cl)cc3)C2=O)cc1,4.9 kMESF (inactive)
5,Cc1cccc(N=C2NC(=O)/C(=C/C=C/c3ccco3)S2)c1C,6.73 kMESF (inactive)
6,Cc1ccc(S(=O)(=O)Cc2cc(F)c([N+](=O)[O-])cc2[N+](=O)[O-])cc1,0.65 kMESF (inactive)
7,CCOc1ccc(NC2=C(Cl)C(=O)N(Cc3ccccc3)C2=O)cc1,3.61 kMESF (inactive)
8,O=C(Sc1cccc2cccnc12)c1ccccc1Br,4.93 kMESF (inactive)
9,O=C(c1ccc(Cl)cc1)N1CCN(c2cccc3[nH]ccc23)CC1,3.33 kMESF (inactive)
10,Oc1c(CN2CCCCC2)cc(Br)c2cccnc12,5.16 kMESF (inactive)
11,CCCc1cc(NCc2ccccn2)n2nc(C)c(-c3ccccc3)c2n1,2.86 kMESF (inactive)
12,Cc1sc(/C=C2\C(=O)ON=C2c2ccccc2)cc1Br,1.67 kMESF (inactive)
13,Cc1cc(C(=O)COC(=O)c2ccc[nH]c2=O)c(C)n1-c1ccccc1F,1.88 kMESF (inactive)
14,Cc1ccc(C)c(/C=C/C(=O)c2ccccc(=O)c2O)c1,-0.95 kMESF (inactive)
15,O=C(/C=C/c1ccccn1)c1ccc(Br)cc1O,2.38 kMESF (inactive)
16,Cc1cc(S(=O)(=O)ON2C(=O)c3ccccc3C2=O)ccc1F,4.9 kMESF (inactive)
17,CCCN1CCc2c(sc(NC(=S)NC(=O)c3ccccc3)c2C#N)C1,4.04 kMESF (inactive)
18,Cc1ccc(/C=C/C(=O)c2ccc([N+](=O)[O-])o2)cc1,3.92 kMESF (inactive)
19,O=C(c1ccccc1)c1ccccc1N1C(=O)C=CC1=O,4.22 kMESF (inactive)
20,CCCc1cc(=O)oc2cc(C)cc(OCC(=O)NC3CC3)c12,1.67 kMESF (inactive)
